# Laboratory results taken from patent US20190070170A1, “METHOD OF S[…]-1” (Macau University of Science and Technology, priority 2017, published 2019).
# What was measured:
# [1] = test system: COX-1; assay: COX-1 protein expression in LPS-activated rat peritoneal macrophages (western blotting); type: cell-based; conditions: SIN or DEX 1 h, LPS 24 h
# Method: Sprague-Dawley (SD) rats from the University of Hong Kong were housed in cages with free access to food and water. Peritoneal macrophages of SD rats were isolated as described in Liu J. et al., Pharmacological research 2016, 111:303-315. Briefly, untreated rats were sacrificed and after laparotomy, about 50 ml cold sterile Hank's balanced salt solution (HBSS) was used to lavage the peritoneal cavity at twice, and then the peritoneal lavage fluid was collected and centrifuged at 1500 rpm for 10 min. The cell pellets was suspended at a density 1.5×10^6 cells/ml in pre-hearted DMEM medium with 10% heat-inactivated FBS, penicillin G (100 units/ml), streptomycin ([…]), and L-glutamine (2 mM), followed by seeding in 6-well plates at a density of 4.5×10^6 cells and incubation for 2 h. Then the medium were discarded to remove the non-adherent cells. The adherent cells were further washed for two times with pre-heated DMEM medium to remove floating cells. Next, cells were pre-treated with various concentration of SIN for 1 h, followed by stimulation with LPS (1 μg/ml).
# (§1) Whole-cell and nuclear proteins were obtained using RIPA lysis buffer (CST, Boston, Mass., USA) and Nuclear and Cytoplasmic Extraction Reagents kit from Thermo Scientific (Asheville, N.C., USA), respectively. […] The levels of protein expression were measured using Odyssey v3.0 software from Li-COR (Lincoln, Nebr., USA).
# [2] = test system: COX-1; assay: COX-1 protein expression in hind paws of CIA DBA/1 mice; type: in vivo; conditions: SIN 100 mg/kg i.p.
# Method: Female DBA/1 mice (8-9 weeks old) were purchased from Shanghai SiLaike (SLAC) Laboratory Animal Company (Shanghai, China) and fed with a chow diet and water at room temperature. Equal volume of complete Freuend's adjuvant (CFA) and Bovine Type II Collagen (CII) were mixed and emulsified using a homogenizer (13,000 rpm) on ice. On day 0, DBA/1 mice were immunized by injecting 50 μl of CII in CFA in the tail, approximately 2 cm from the base of the tail. […] The incidence of joint swelling in each group was recorded every two days since drug treatment. […]
# Frozen paws were pulverized in liquid nitrogen using a stainless steel mortar and pestle, then re-suspended in 8 volumes of ice-cold PBS from Invitrogen (San Diego, Calif., USA) with 2.6 mM DTT from Promega (Madison, Wis., USA) and 2×Complete Protease Inhibitor mixture from Roche (Mannheim, Germany), and homogenized on ice bath using a tissue homogenizer from T25 digital, IKA (Stanfen, Germany) at 10,000 rpm/min for 5 min. […] The protein concentrations were measured using a Bio-Rad protein assay kit (Hercules, Calif., USA). […]
# as §1
# [3] = test system: CEBPβ (mPGES-1 promoter); assay: ChIP assay: CEBPβ DNA binding to mPGES-1 promoter in LPS-stimulated rat peritoneal macrophages; type: cell-based; conditions: 640 μM SIN 1 h, 1 μg/ml LPS 30 min
# Method: Rat peritoneal macrophages were pretreated with 640 μM SIN (1 h) and stimulated with 1 μg/ml LPS (30 min) before fixation at room temperature for 10 min with 1% formaldehyde. Fixation was terminated by adding glycine (to 0.125 M) with an additional incubation of 5 min, then the cells were washed twice with ice-cold PBS and harvested by scraping and centrifugation (1500 rpm for 10 min at 4° C.). Cell lysis was performed using ChIP kit from abcam (Cambridge, UK) according to the manufacturer's instructions. Briefly, cell pellets were resuspended in 1 ml Buffer B by pipetting up and down several times in a microcentrifuge tube and incubated at room temperature for 10 min. After centrifugation at 5000 rpm, the pellet was collected and resuspended in ice cold Buffer C and incubated on ice for 10 min, followed by centrifugation (5,000 rpm for 10 min at 4° C.). The pellet was mixed with 100 μl Buffer D containing protease inhibitors, incubated on ice for 10 min and sonicated for 30 cycles in a Bioruptor UCD-300 sonicator (power on high, 30 s on, 30 s off per cycle), yielding DNA fragments of 150-200 bps (the size of sonicated chromatin was checked through running 2% agarose gel). Beads were blocked overnight in PBS with 0.5% BSA and then added to the samples. […]
smiles,measurement,setting,value
"COC1=C[C@@H]2[C@@H]3Cc4ccc(OC)c(O)c4[C@]2(CCN3C)CC1=O [SIN, sinomenine]",COX-1 protein expression,[1],did not suppress
same,COX-1 expression in paw tissues,[2],did not produce observable changes
same,DNA binding of CEBPβ to the mPGES-1 promoter,[3],inhibited
